Results on 6 compounds are retold here after publication PMC7615053 (Nature methods, 2023).

The target in assay [1] is T1, sperm whale-based indicator (Alpha-1 AR, red prototype) (Physeter macrocephalus, UniProt A0A2Y9EW94).
T1 sequence (A0A2Y9EW94 with tags, fused parts or gaps): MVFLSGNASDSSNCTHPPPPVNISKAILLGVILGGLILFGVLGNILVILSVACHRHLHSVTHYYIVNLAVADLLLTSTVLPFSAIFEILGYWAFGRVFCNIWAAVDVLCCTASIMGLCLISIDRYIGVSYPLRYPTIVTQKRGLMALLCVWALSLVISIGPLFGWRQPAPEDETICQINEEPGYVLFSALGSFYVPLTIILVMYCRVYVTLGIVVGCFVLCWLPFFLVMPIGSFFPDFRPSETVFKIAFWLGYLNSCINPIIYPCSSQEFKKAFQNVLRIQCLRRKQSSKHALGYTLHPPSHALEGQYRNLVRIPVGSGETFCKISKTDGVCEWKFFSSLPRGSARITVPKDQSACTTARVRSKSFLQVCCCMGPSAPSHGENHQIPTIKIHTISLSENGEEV
As to the kind of experiment: Dose-response of the sperm whale-based red indicator prototype in HEK293T cells. Type of assay: cell-based.

The test system of another assay is human DRD1. As to conditions: DA 10 μM, DRD1 (positive control).
Assay [2] deals with T2, nLightR (Physeter macrocephalus, UniProt A0A2Y9EW94).
T2 sequence (A0A2Y9EW94 with tags, fused parts or gaps): T1 sequence (A0A2Y9EW94 with tags, fused parts or gaps)
As to the kind of experiment: Plate reader dose-response of nLightR in HEK293T cells. The format is cell-based, sperm whale.

The test system of assay [3] is GRABNE1m.
Assay [4] addresses T3, nLightG (Physeter macrocephalus, UniProt A0A2Y9EW94).
T3 sequence (A0A2Y9EW94 with tags, fused parts or gaps): T1 sequence (A0A2Y9EW94 with tags, fused parts or gaps)
As to the kind of experiment: Plate reader dose-response of nLightG in HEK293T cells. Type of assay: cell-based, sperm whale.

Assay [5] addresses T3, nLightG. As to the kind of experiment: Ligand perfusion on acute brain slices. The arrangement: species or system sperm whale.
Assay [6] concerns the target T2, nLightR. As to the kind of experiment: Ligand perfusion on acute brain slices. The arrangement: species or system sperm whale.
The subject of assay [7] is GRABNE1m. To be noted: HEK293T cells.
Assay [8] concerns the target T3, nLightG. Put plainly: Confocal imaging of nLightG in HEK293T cells. The format is cell-based, sperm whale. To be noted: for fluorescence response of nLightG to neurotransmitter: 10 μM, HEK293T cells.
The target in assay [9] is T2, nLightR. Put plainly: Confocal imaging of nLightR in HEK293T cells. The format is cell-based, sperm whale. As to conditions: for fluorescence response of nLightR to neurotransmitter: 10 μM, HEK293T cells.
Assay [10] addresses T2, nLightR. As to the kind of experiment: Intracellular calcium signaling. Type of assay: cell-based, sperm whale. As to conditions: NE 10 μM, HEK293T. Background: Calcium flux is commonly read through the fluorescence of an indicator in the cells.
The target of assay [11] is T3, nLightG. As to the kind of experiment: Intracellular calcium signaling. The format is cell-based, sperm whale. To be noted: NE 10 μM, HEK293T.
In assay [12] the target is T3, nLightG. As to the kind of experiment: NanoBiT complementation assay in HEK293T cells. Type of assay: cell-based, sperm whale. To be noted: NE 10 μM.
Assay [13] deals with green fluorescent NE indicator prototype (sperm whale Alpha-1 AR). Put plainly: Fluorescence response of the green NE indicator prototype. The format is cell-based. As to conditions: green prototype with fluorescent protein module from dLight1.3b.
Assay [14] deals with swAlpha-1 AR. Put plainly: NanoBiT complementation assay in HEK293T cells. As to conditions: NE 10 μM. The format is cell-based, sperm whale.
Assay [15] deals with T2, nLightR. As to the kind of experiment: NanoBiT complementation assay in HEK293T cells. The format is cell-based, sperm whale. As to conditions: NE 10 μM.
Assay [16] relates to swAlpha-1 AR. The format is cell-based, sperm whale. To be noted: NE 10 μM, wild-type swAlpha-1 AR, HEK293T.
In assay [17] the test system is optogenetically-evoked NE release. As to the kind of experiment: Dual-site fiber photometry in LC and dHPC during optogenetic LC stimulation. As to conditions: desipramine 10 μg/g i.p., awake mice. The format is in vivo, mouse.
Assay [18] has as its system GRABNE1m. As to the kind of experiment: Confocal imaging of GRABNE1m in HEK293T cells. The format is cell-based.
The subject of assay [19] is tail-lift-induced NE release. Put plainly: Fiber photometry in lateral hypothalamus during tail-lifting. To be noted: trazodone 1 mg/kg or yohimbine 4 mg/kg, i.p., mice. Type of assay: in vivo, mouse.
In assay [20] the test system is optogenetically-evoked NE signals. The format is in vivo, mouse. To be noted: yohimbine 4 mg/kg i.p., vHPC, isoflurane anesthesia, 5 Hz LC stimulation.
Where [21] appears, read: trazodone 10 μM after NE 50 μM, brain slices.
Setting [22] is: after NE 10 μM, Trz 10 μM, HEK293T cells and neurons.

SMILES strings stand for the structures. Where two headings read alike, the source gives them in different places.

The term EC50 denotes the midpoint of the concentration-response curve. Low values mean greater potency, high ones weaker potency. Take `NCCc1ccc(O)c(O)c1` [DA, dopamine]: it took 21.5 µM to reach a half-maximal effect in assay [1] (EC50). The “recruitment of β-arrestin-2” value with human DRD1 is given as “significant recruitment”. Also, the “agonist character at nLightR” value at nLightR [2] is reported as “partial agonist”. Further, the “EC50 of DA relative to that of NE” value at nLightR [2] (nLightR) and at nLightG [4] (nLightG) was “approximately 30 fold” each time. The “response to DA relative to response to NE” value in the assay with GRABNE1m [3] (50 μM, mouse LH brain slices) is recorded as “about 19%”. Also, at nLightG [4], the “agonist character at nLightG” value is reported as “partial agonist”. The “response to DA relative to response to identical concentration of NE” value on nLightG [5] (50 μM, mouse LH brain slices) is “about 12%”; on nLightR [6] (50 μM, mouse LH brain slices), ~3%. Further, the “EC50 for DA relative to that for NE” value in the assay with GRABNE1m [7] is on record as 8 fold. Also, in the assay on GRABNE1m [7], the “maximal response to DA as fraction of the response to NE” value was 35%. Moreover, the “fluorescence response of nLightG to neurotransmitter” value (“fluorescence response of nLightG” below) at nLightG [8] is recorded as “significant fluorescence response”. In addition, at nLightR [9], the “fluorescence response of nLightR to neurotransmitter” value (“fluorescence response of nLightR” below) is recorded as “significant fluorescence response”.

With `NC[C@H](O)c1ccc(O)c(O)c1` [NE, norepinephrine], the “intracellular Ca2+ concentration” value at nLightR [10] is “did not induce a significant increase”; on nLightG [11], “did not induce a significant increase”; with swAlpha-1 AR [16], “significant increase”. Besides, the EC50 in assay [1] was found to be 0.574 µM. Also, the “coupling to mini-Gq, mini-Gs or mini-Gi” value at nLightG [12] and at nLightR [15] was “did not lead to a significant coupling” throughout. Further, the “recruitment of β-arrestin-2” value at nLightG [12] and at nLightR [15] was “no recruitment” each time. Moreover, the ΔF/F0 response entry in assay [13] is “approximately 1000%”. Also, the “coupling to mini-Gi” value with swAlpha-1 AR [14] is given as “no significant coupling”. Besides, the “coupling to mini-Gq and mini-Gs” value in the assay on swAlpha-1 AR [14] is “significant coupling”. Also, the “fluorescence response of nLightG” value at nLightG [8] is reported as “significant fluorescence response”. The “fluorescence response of nLightR” value at nLightR [9] is “significant fluorescence response”.

Take `CNCCCN1c2ccccc2CCc2ccccc21` [desipramine]: in [17], the “effect on magnitude and decay kinetics of the nLightG response in LC” value is “significant increase”.

Regarding `CNC[C@H](O)c1ccc(O)c(O)c1` [epinephrine], the “fluorescence response of nLightG” value on nLightG [8] is given as “significant fluorescence response”. Besides, on nLightR [9], the “fluorescence response of nLightR” value was “significant fluorescence response”.

In the case of `O=c1n(CCCN2CCN(c3cccc(Cl)c3)CC2)nc2ccccn12` [trazodone], in the assay with GRABNE1m [18] (after NE 10 μM, Trz 100 nM, Yoh 100 nM, HEK293T), the “effect of antagonist on NE-induced activation of GRABNE1m” value is on record as “not affected”. Moreover, in the assay with GRABNE1m [3] (setting [21]), the “effect on NE-induced response” value is on record as “no significant effect”. At nLightG [5] (setting [21]), the “effect on NE-induced response” value is “largely reversed”. The “effect on NE-induced response” value on nLightR [6] (setting [21]) is given as “largely reversed”. In assay [19], the “effect on tail-lift-induced GRABNE1m signals” value is reported as “no effect”, the “effect on tail-lift-induced response of nLightG” value is listed as “significantly reduced” and the “effect on tail-lift-induced response of nLightR” value is on record as “significantly reduced”. Besides, at nLightG [8] (setting [22]), the “effect of antagonist on NE-induced activation of nLightG” value is listed as “fully reversed”. For the same compound, the “effect of antagonist on NE-induced activation of nLightR” value on nLightR [9] (setting [22]) is reported as “fully reversed”.

Take `COC(=O)[C@@H]1[C@H]2C[C@H]3c4[nH]c5ccccc5c4CCN3C[C@@H]2CC[C@@H]1O` [yohimbine]: the “effect of antagonist on NE-induced activation of GRABNE1m” value in the assay with GRABNE1m [18] is “fully inactivated”. In assay [20], the “effect on optogenetically-evoked NE signals monitored via GRABNE1m” value is reported as “significantly attenuated” and the “effect on optogenetically-evoked NE signals reported by nLightG” value is recorded as “did not have a significant effect”. Further, in assay [19], the “effect on tail-lift-induced GRABNE1m signals” value is “strongly attenuated”, the “effect on tail-lift-induced response of nLightG” value is given as “increased” and the “effect on tail-lift-induced response of nLightR” value is recorded as “increased”.
